Measured values from PubChem BioAssay AID2060338 (Molecular Pharmacology Branch, DTP, NCI, 2025).
Several values for one entry are separate records, joined by “and”; a condition that tells them apart may be missing. Equal values may be shown once.

Test system: 556581-035-R-J1-PDC spheroids with HUVEC/MSC, viability
Experiment: Anticancer human tumor 556581-035-R-J1-PDC patient-derived ovarian carcinoma cell line growth inhibition [IpAb]
Settings: for viability, T/C: stronger effect = lower value
Excerpt: Combinatorial screen of targeted agents with ipatasertib and abemaciclib in multi-cell type tumor spheroids
A high-throughput screen of multi-cell type tumor spheroids was designed to identify active combinations of targeted small molecules and ipatasertib or abemaciclib. Complex spheroids include a stromal component modeled by human endothelial cells (HUVEC) and fibroblasts modeled by human mesenchymal stem cells (MSCs). The concentration ranges selected for each drug and investigational agent were based upon clinically achievable concentrations if the clinical Cmax of the agent was known.
Compounds. The drugs and investigational agents: ipatasertib (NSC767898), abemaciclib(NSC768073), selumetinib (NSC741078), trametinib (758246), adavosertib (NSC754352), everolimus (NSC733504), sapanisertib (NSC764658), vemurafenib (NSC761431), venetoclax (NSC766270), copanlisib (NSC809693), apelisib (NSC765974), palbociblib (NSC758247), vemurafenib (NSC761431), dabrafenib (NSC764134), ravoxertinib (NSC781343), BMS-387032 (NSC767048), sotorasib (NSC818433), talazoparib (NSC767125) and afursertib (NSC778305), were obtained from the National Cancer Institute (NCI) Developmental Therapeutics Program Chemical Repository. The FDA-approved anticancer drug set is available from the NCI Developmental Therapeutics Program. […] The stock solutions were prepared in dimethyl sulfoxide (DMSO, Sigma-Aldrich, St. Louis, MO, cat. D2650) at 800-fold the tested concentration and stored at -70 degrees C prior to their use. All drugs and investigational agents were tested over a range starting from a high concentration at or near the clinical Cmax and decreasing in half-log increments. If the clinical Cmax for an agent had not been determined, the highest concentration tested was 10 microM.
NCI60 Cell Culture. NCI60 cell lines were obtained from the NCI Developmental Therapeutics Program Tumor Repository. For each lot of cells, the Repository performed Applied Biosystems AmpFLSTR Identifiler testing with PCR amplification to confirm consistency with the published Identifier STR profile for each cell line. Cells were kept in continuous culture for no more than 20 passages. The optimal seeding densities for each of the cell lines at each time point assessed were determined prior to performing the concentration response studies. Briefly, the NCI60 human tumor lines were grown as monolayers in RPMI 1640 medium supplemented with 10% FBS and 2 mmol/L L-glutamine.
An additional 9 lines were from the NCI60 cell line panel including MDA-MB-231 breast carcinoma, MDA-MB-468 breast carcinoma, MCF7 breast carcinoma, Hs578T breast carcinoma, MALME-3M melanoma, SK-MEL-2 melanoma, SK-OV-3 ovarian carcinoma, DU-145 prostate carcinoma, PC-3 prostate carcinoma, all cell lines along with major genetic alterations are listed on Table 2. Pooled donor human umbilical vein endothelial cells (HUVEC, Lonza, cat. CC-2519) and human mesenchymal stem cells (hMSC, Lonza, cat. PT-2501) were purchased from Lonza (Walkersville, MD).
PDMR cell lines were grown in complete medium (DC medium): Dulbecco's modified Eagle's medium (DMEM)/F12 supplemented with 5% fetal bovine serum (FBS), 2 mM L-glutamine, 100 U/mL penicillin and 100 µg/ml streptomycin, 0.4 µg/ml hydrocortisone, 10 ng/ml epidermal growth factor (EGF) recombinant human protein, 24 µg/mL adenine, and 0.1 mg/mL primocin. During culture from frozen stock vials, PDMR cells were cultured in the same medium containing 10 µM Y-27632 (see Table 3). The PDCs were cultured in complete DMEM/F12 media without 10 microM Y-27632 dihydrochloride for at least two passages prior to the screen. The pooled donor HUVEC and hMSC were cultured in endothelial cell growth medium 2 (PromoCell, Heidelberg, Germany, cat. C-22011) and mesenchymal stem cell growth medium 2 (PromoCell, cat. C-28009), respectively. For all experiments, HUVEC and hMSC were used at passages </=5.
[…]

[1] = curve of first compound, second compound 0.01 µM
[2] = curve of first compound, second compound 0.0316 µM
[3] = curve of first compound, second compound 0.1 µM
[4] = curve of first compound, second compound 0.316 µM
[5] = curve of first compound, second compound 1 µM
[6] = second compound 0.01 µM, first compound 0.0316 µM
[7] = second compound 0.01 µM, first compound 0.1 µM
[8] = second compound 0.0316 µM, first compound 0.0316 µM
[9] = second compound 0.0316 µM, first compound 0.1 µM
[10] = second compound 0.1 µM, first compound 0.0316 µM
[11] = second compound 0.1 µM, first compound 0.1 µM
[12] = second compound 0.1 µM, first compound 0.316 µM
[13] = second compound 0.1 µM, first compound 1 µM
[14] = second compound 0.1 µM, first compound 3.16 µM
[15] = second compound 0.1 µM, first compound 10 µM
[16] = second compound 0.316 µM, first compound 0.0316 µM
[17] = second compound 0.316 µM, first compound 0.1 µM
[18] = second compound 0.316 µM, first compound 0.316 µM
[19] = second compound 0.316 µM, first compound 1 µM
[20] = second compound 0.316 µM, first compound 3.16 µM
[21] = second compound 0.316 µM, first compound 10 µM
[22] = second compound 1 µM, first compound 0.0316 µM
[23] = second compound 1 µM, first compound 0.1 µM
[24] = second compound 1 µM, first compound 0.316 µM
[25] = second compound 1 µM, first compound 1 µM
[26] = second compound 1 µM, first compound 3.16 µM
[27] = second compound 1 µM, first compound 10 µM
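Also: spheroids exposed to compounds for 7 days before readout.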

SMILES: CC1(C)CCC(CN2CCN(c3ccc(C(=O)NS(=O)(=O)c4ccc(NCC5CCOCC5)c([N+](=O)[O-])c4)c(Oc4cnc5[nH]ccc5c4)c3)CC2)=C(c2ccc(Cl)cc2)C1 + CCN1CCN(Cc2ccc(Nc3ncc(F)c(-c4cc(F)c5nc(C)n(C(C)C)c5c4)n3)nc2)CC1
- IC50 [1]: 8320 nM
- IC50 [2]: 6500 nM
- IC50 [3]: 6720 nM
- IC50 [4]: 5590 nM
- IC50 [5]: 2060 nM
- viability, T/C [6]: 92.6%
- viability, T/C [7]: 118%
- viability, T/C (second compound 0.01 µM, first compound 0.316 µM): 112%
- viability, T/C (second compound 0.01 µM, first compound 1 µM): 108%
- viability, T/C (second compound 0.01 µM, first compound 3.16 µM): 102%
- viability, T/C (second compound 0.01 µM, first compound 10 µM): 40.2%
- viability, T/C [8]: 106%
- viability, T/C [9]: 111%
- viability, T/C (second compound 0.0316 µM, first compound 0.316 µM): 108%
- viability, T/C (second compound 0.0316 µM, first compound 1 µM): 98%
- viability, T/C (second compound 0.0316 µM, first compound 3.16 µM): 95.5%
- viability, T/C (second compound 0.0316 µM, first compound 10 µM): 23.7%
- viability, T/C [10]: 122%
- viability, T/C [11]: 104%
- viability, T/C [12]: 107%
- viability, T/C [13]: 94.4%
- viability, T/C [14]: 91.6%
- viability, T/C [15]: 29.9%
- viability, T/C [16]: 94%
- viability, T/C [17]: 95.6%
- viability, T/C [18]: 92.2%
- viability, T/C [19]: 94.4%
- viability, T/C [20]: 87.6%
- viability, T/C [21]: 11.8%
- viability, T/C [22]: 67%
- viability, T/C [23]: 58.1%
- viability, T/C [24]: 68.6%
- viability, T/C [25]: 56.8%
- viability, T/C [26]: 45.1%
- viability, T/C [27]: 6.15%

SMILES: Cn1cnc2c(F)c(Nc3ccc(Br)cc3Cl)c(C(=O)NOCCO)cc21
- viability, T/C (compound 0.00949 µM): 94.9% and 121%
- viability, T/C (compound 0.03 µM): 95% and 99.7%
- viability, T/C (compound 0.0949 µM): 92.9% and 109%
- viability, T/C (compound 0.3 µM): 74.6% and 91.1%
- viability, T/C (compound 0.949 µM): 45.2% and 43%
- viability, T/C (compound 3 µM): 14.4% and 14%
- IC50 (curve of compound): 779 nM and 805 nM

SMILES: COc1c(OCCCN2CCOCC2)ccc2c3n(c(=NC(=O)c4cnc(N)nc4)nc12)CCN3
- viability, T/C (compound 0.00316 µM): 72.5% and 103%
- viability, T/C (compound 0.01 µM): 52.7% and 57.6%
- viability, T/C (compound 0.0316 µM): 41.7% and 46.2%
- viability, T/C (compound 0.1 µM): 32.3% and 38.2%
- viability, T/C (compound 0.316 µM): 11% and 11.5%
- viability, T/C (compound 1 µM): 2.47% and 3.86%
- IC50 (curve of compound): 16.3 nM and 24.4 nM

SMILES: CC(C)n1nc(-c2ccc3oc(N)nc3c2)c2c(N)ncnc21 + CCN1CCN(Cc2ccc(Nc3ncc(F)c(-c4cc(F)c5nc(C)n(C(C)C)c5c4)n3)nc2)CC1
- IC50 [1]: 4.4 nM
- IC50 [2]: 7.08 nM
- IC50 [3]: 5.03 nM
- IC50 [4]: 6.49 nM
- IC50 [5]: < 0.316 nM
- viability, T/C (second compound 0.01 µM, first compound 0.000316 µM): 108%
- viability, T/C (second compound 0.01 µM, first compound 0.001 µM): 72.6%
- viability, T/C (second compound 0.01 µM, first compound 0.00316 µM): 54.4%
- viability, T/C (second compound 0.01 µM, first compound 0.01 µM): 44.2%
- viability, T/C [6]: 26.4%
- viability, T/C [7]: 22.2%
- viability, T/C (second compound 0.0316 µM, first compound 0.000316 µM): 86.4%
- viability, T/C (second compound 0.0316 µM, first compound 0.001 µM): 78.7%
- viability, T/C (second compound 0.0316 µM, first compound 0.00316 µM): 60.7%
- viability, T/C (second compound 0.0316 µM, first compound 0.01 µM): 46.8%
- viability, T/C [8]: 27.5%
- viability, T/C [9]: 19.7%
- viability, T/C (second compound 0.1 µM, first compound 0.000316 µM): 89.6%
- viability, T/C (second compound 0.1 µM, first compound 0.001 µM): 76.1%
- viability, T/C (second compound 0.1 µM, first compound 0.00316 µM): 51.7%
- viability, T/C (second compound 0.1 µM, first compound 0.01 µM): 45%
- viability, T/C [10]: 26.4%
- viability, T/C [11]: 20.2%
- viability, T/C (second compound 0.316 µM, first compound 0.000316 µM): 80.1%
- viability, T/C (second compound 0.316 µM, first compound 0.001 µM): 69.8%
- viability, T/C (second compound 0.316 µM, first compound 0.00316 µM): 61.5%
- viability, T/C (second compound 0.316 µM, first compound 0.01 µM): 44.2%
- viability, T/C [16]: 28.7%
- viability, T/C [17]: 21.6%
- viability, T/C (second compound 1 µM, first compound 0.000316 µM): 41.9%
- viability, T/C (second compound 1 µM, first compound 0.001 µM): 52.7%
- viability, T/C (second compound 1 µM, first compound 0.00316 µM): 38.4%
- viability, T/C (second compound 1 µM, first compound 0.01 µM): 31.9%
- viability, T/C [22]: 28.4%
- viability, T/C [23]: 23.1%

SMILES: Cc1nc(NC(=O)N2CCCC2C(N)=O)sc1-c1ccnc(C(C)(C)C(F)(F)F)c1 (centres undefined) + CC(C)NCC(C(=O)N1CCN(c2ncnc3c2C(C)CC3O)CC1)c1ccc(Cl)cc1
- IC50 [3]: 504 nM
- IC50 [4]: 206 nM
- IC50 [5]: 48.4 nM
- IC50 (curve of first compound, second compound 3.16 µM): < 31.6 nM
- IC50 (curve of first compound, second compound 10 µM): < 31.6 nM
- viability, T/C [10]: 81.8%
- viability, T/C [11]: 68.6%
- viability, T/C [12]: 56.8%
- viability, T/C [13]: 38.8%
- viability, T/C [14]: 31%
- viability, T/C [15]: 11.3%
- viability, T/C [16]: 62%
- viability, T/C [17]: 57.6%
- viability, T/C [18]: 40.3%
- viability, T/C [19]: 39.2%
- viability, T/C [20]: 33%
- viability, T/C [21]: 11.3%
- viability, T/C [22]: 48.5%
- viability, T/C [23]: 53.8%
- viability, T/C [24]: 39.8%
- viability, T/C [25]: 36.2%
- viability, T/C [26]: 27.4%
- viability, T/C [27]: 16.2%
- viability, T/C (second compound 3.16 µM, first compound 0.0316 µM): 41.8%
- viability, T/C (second compound 3.16 µM, first compound 0.1 µM): 43.2%
- viability, T/C (second compound 3.16 µM, first compound 0.316 µM): 43.5%
- viability, T/C (second compound 3.16 µM, first compound 1 µM): 35.6%
- viability, T/C (second compound 3.16 µM, first compound 3.16 µM): 24.6%
- viability, T/C (second compound 3.16 µM, first compound 10 µM): 10.7%
- viability, T/C (second compound 10 µM, first compound 0.0316 µM): 38.6%
- viability, T/C (second compound 10 µM, first compound 0.1 µM): 42.4%
- viability, T/C (second compound 10 µM, first compound 0.316 µM): 35.7%
- viability, T/C (second compound 10 µM, first compound 1 µM): 27.2%
- viability, T/C (second compound 10 µM, first compound 3.16 µM): 22.9%
- viability, T/C (second compound 10 µM, first compound 10 µM): 4.11%
